In patent US10647719B2, “Bicyclic compounds as dual ATX/CA inhibitors” (Hoffmann-La Roche Inc., priority 2015, dated 2020):
Where two headings read alike, the source gives them in different places.

Experiments:
[1] = molecular target: Human carbonic anhydrase II (hCA-II) (Homo sapiens (Human), UniProt P00918); test: Human carbonic anhydrase-II inhibition assay (absorbance, 4-nitrophenyl acetate substrate); type: biochemical
Protocol: Human Carbonic Anhydrase-II Inhibition Assay
Human carbonic anhydrase II (hCA-II) inhibition was measured by an absorbance method using 4-nitrophenyl acetate (4-NPA) as its substrate. 4-NPA can be catalyzed by active hCA II via a zinc-hydroxide mechanism. The nitrophenolate in the products can be ionized to generate a bright yellow anion with high absorbance at 348 to 400 nm, as reported in the literature (Armstrong et al., J. Biol. Chem. 1966, 241, 5137-5149). OD340 nm was chosen for detecting hCA II substrate conversion.
(§1) Assay working solutions were made as follows:
Assay buffer: 50 mM MOPS, 33 mM Na2SO4, 1 mM EDTA, 0.5 mg/ml BSA, pH 7.5;
Enzyme solution: hCA-II (human, full length) stock solution (1.0 mg/mL in 20 mM HEPES, 50 mM NaCl, pH 7.4), diluted to 2133× final concentration in assay buffer;
4-NPA substrate solution: 4-NPA substrate stock solution (250 mM in DMSO, stored at −20° C.), diluted to 50× final concentration in deionized water.
Test compounds (10 mM stock in DMSO, 100 μL) were obtained in […] sample plates (Corning Costar #3655) and diluted to 0.5 mM. Column-wise serial dilutions were made by transferring 20 μL compound solutions to the next column, from column 3 up to 22. After this, 1.2 μL were transferred to 384 well assay plates (Corning Costar #3701). Then 30 μL of 16 nM hCA II solution was added (8 nM final concentration), mixed five times. 30 μL of 4-NPA substrate solution was added (2.5 mM final concentration), mixed five times. Absorbance at 340 nm was then measured immediately as time zero. The assay plates were incubated at room temperature for 1 hour and then measured as time 1 hour (Perkin Elmer EnVision 2103; Filter: Photometric 340; Light intensity 60%; Number of flashes: 10). IC50 values and Ki values were calculated from these readouts.

human ATX = human ATX (Homo sapiens (Human), UniProt Q13822); test: Human ATX enzyme inhibition assay (fluorescence quenching, MR121 substrate); type: biochemical
Protocol: Human ATX Enzyme Inhibition Assay
ATX inhibition was measured by a fluorescence quenching assay using a specifically labeled substrate analogue (MR121 substrate). To obtain this MR121 substrate, BOC and TBS protected 6-amino-hexanoic acid (R)-3-({2-[3-(2-{2-[2-(2-amino-ethoxy)-ethoxy]-ethoxy}-ethoxy)-propionylamino]-ethoxy}-hydroxy-phosphoryloxy)-2-hydroxy-propyl ester (Ferguson et al., Org Lett 2006, 8 (10), 2023) was labeled with MR121 fluorophore (CAS 185308-24-1, 1-(3-carboxypropyl)-11-ethyl-1,2,3,4,8,9,10,11-octahydro-dipyrido[3,2-b:2′,3′-i]phenoxazin-13-ium) on the free amine of the ethanolamine side and then, after deprotection, subsequently with tryptophan on the side of the aminohexanoic acid.
as §1
Assay buffer (50 mM Tris-HCl, 140 mM NaCl, 5 mM KCl, 1 mM CaCl2, 1 mM MgCl2, 0.01% Triton-X-100, pH 8.0;
ATX solution: ATX (human His-tagged) stock solution (1.08 mg/mL in 20 mM bicine, pH 8.5, 0.15 M NaCl, 10% glycerol, 0.3% CHAPS, 0.02% NaN3), diluted to 1.4-2.5× final concentration in assay buffer;
MR121 substrate solution: MR121 substrate stock solution (800 μM MR121 substrate in DMSO), diluted to 2-5× final concentration in assay buffer.
Test compounds (10 mM stock in DMSO, 8 μL) were obtained in 384 well sample plates (Corning Costar #3655) and diluted with 8 μL DMSO. Row-wise serial dilutions were made by transferring 8 μL cpd solution to the next row up to row O. The compound and control solutions were mixed five times and 2 μL were transferred to 384 well assay plates (Corning Costar #3702). Then, 15 μL of 41.7 nM ATX solution was added (30 nM final concentration), mixed five times and then incubated for 15 minutes at 30° C. 10 μL of MR121 substrate solution was added (1 μM final concentration), mixed 30 times and then incubated for 15 minutes at 30° C.

[2] = hCA II 8 nM, 4-NPA 2.5 mM, absorbance 340 nm, room temperature 1 hour, read-out: CA-II IC50
[3] = human His-tagged ATX 30 nM, MR121 substrate 1 μM, 30° C., read-out: ATX IC50

Structure (SMILES)	IC50 [1, 2] [nM]	IC50 (human ATX; [3]) [nM]	IC50 [1] [nM]	IC50 (human ATX) [nM]
Cc1nnn(Cc2cc(C(F)(F)F)ccc2CCC(=O)N2CC3=C(C2)CN(C(=O)c2ccc(S(N)(=O)=O)cc2F)C3)n1 [Example 1.10, 3-fluoro-4-(5-(3-(2-((5-methyl-2H-tetrazol-2-yl)methyl)-4-(trifluoromethyl)phenyl)propanoyl)-1,2,3,4,5,6-hexahydropyrrolo[3,4-c]pyrrole-2-carbonyl)benzenesulfonamide]	19	8		
CC(C)(C)C(=O)Nc1cc(Cl)cnc1COC(=O)N1CC2=C(C1)CN(C(=O)c1ccc(S(N)(=O)=O)c(F)c1F)C2 [Example 1.14, [5-chloro-3-(2,2-dimethylpropanoylamino)pyridin-2-yl]methyl 2-(2,3-difluoro-4-sulfamoylbenzoyl)-1,3,4,6-tetrahydropyrrolo[3,4-c]pyrrole-5-carboxylate]	16.6	15		
CC(C)(C)C(=O)Nc1ccc(Cl)nc1COC(=O)N1CC2=C(C1)CN(C(=O)c1ccc(S(N)(=O)=O)c(F)c1F)C2 [Example 1.22, [6-chloro-3-(2,2-dimethylpropanoylamino)pyridin-2-yl]methyl 2-(2,3-difluoro-4-sulfamoylbenzoyl)-1,3,4,6-tetrahydropyrrolo[3,4-c]pyrrole-5-carboxylate]	2	6		
CC(C)(C)C(=O)Nc1ccc(Cl)nc1COC(=O)N1CC2=C(C1)CN(C(=O)c1cc(F)c(S(N)(=O)=O)cc1F)C2 [Example 1.20, [6-chloro-3-(2,2-dimethylpropanoylamino)pyridin-2-yl]methyl 2-(2,5-difluoro-4-sulfamoylbenzoyl)-1,3,4,6-tetrahydropyrrolo[3,4-c]pyrrole-5-carboxylate]	2	15		
CC(C)(C)C(=O)Nc1cc(C(F)(F)F)cnc1COC(=O)N1CC2=C(C1)CN(C(=O)c1c(F)cc(S(N)(=O)=O)cc1F)C2 [Example 1.11, [3-(2,2-dimethylpropanoylamino)-5-(trifluoromethyl)pyridin-2-yl]methyl 2-(2,6-difluoro-4-sulfamoylbenzoyl)-1,3,4,6-tetrahydropyrrolo[3,4-c]pyrrole-5-carboxylate]	27	9		
Cc1nnn(Cc2cc(C#N)ccc2CCC(=O)N2CC3=C(C2)CN(C(=O)c2ccc(S(N)(=O)=O)cc2F)C3)n1 [Example 3.06, 4-[2-[3-[4-cyano-2-[(5-methyltetrazol-2-yl)methyl]phenyl]propanoyl]-1,3,4,6-tetrahydropyrrolo[3,4-c]pyrrole-5-carbonyl]-3-fluorobenzenesulfonamide]			16	2
NS(=O)(=O)c1ccc(C(=O)N2CC3=C(CN(C(=O)c4cc(OCC5CCOCC5)nc(C5CC5)c4)C3)C2)c(F)c1F [Example 1.33, 4-[5-[2-cyclopropyl-6-(oxan-4-ylmethoxy)pyridine-4-carbonyl]-1,3,4,6-tetrahydropyrrolo[3,4-c]pyrrole-2-carbonyl]-2,3-difluorobenzenesulfonamide]			2.3	1
Cc1nnn(Cc2cc(Cl)cnc2COC(=O)N2CC3=C(C2)CN(C(=O)c2ccc(S(N)(=O)=O)cc2F)C3)n1 [Example 2.04, [5-chloro-3-[(5-methyltetrazol-2-yl)methyl]pyridin-2-yl]methyl 2-(2-fluoro-4-sulfamoylbenzoyl)-1,3,4,6-tetrahydropyrrolo[3,4-c]pyrrole-5-carboxylate]			1.9	12
NS(=O)(=O)c1ccc(C(=O)N2CC3=C(CN(C(=O)CCc4ccc(OC(F)(F)F)cc4)C3)C2)c(F)c1 [Example 3.02, 3-fluoro-4-[2-[3-[4-(trifluoromethoxy)phenyl]propanoyl]-1,3,4,6-tetrahydropyrrolo[3,4-c]pyrrole-5-carbonyl]benzenesulfonamide]			5	6
NS(=O)(=O)c1ccc(C(=O)N2CC3=C(CN(C(=O)OCc4ccc(OC(F)(F)F)cc4)C3)C2)nc1 [Example 2.02, [4-(trifluoromethoxy)phenyl]methyl 2-(5-sulfamoylpyridine-2-carbonyl)-1,3,4,6-tetrahydropyrrolo[3,4-c]pyrrole-5-carboxylate]			8	3
Cc1nnn(Cc2cc(Cl)ccc2CCC(=O)N2CC3=C(C2)CN(C(=O)c2ccc(S(N)(=O)=O)cc2F)C3)n1 [Example 3.07, 4-[2-[3-[4-chloro-2-[(5-methyltetrazol-2-yl)methyl]phenyl]propanoyl]-1,3,4,6-tetrahydropyrrolo[3,4-c]pyrrole-5-carbonyl]-3-fluorobenzenesulfonamide]			5	4

The remaining lines, values ahead:

IC50 [1, 2] [nM]	IC50 (human ATX; [3]) [nM]	IC50 [1] [nM]	IC50 (human ATX) [nM]	Structure (SMILES)
11	7			CC(C)(C)C(=O)Nc1cc(C(F)(F)F)cnc1COC(=O)N1CC2=C(C1)CN(C(=O)c1ccc(S(N)(=O)=O)cn1)C2 [Example 1.05, [3-(2,2-dimethylpropanoylamino)-5-(trifluoromethyl)pyridin-2-yl]methyl 2-(5-sulfamoylpyridine-2-carbonyl)-1,3,4,6-tetrahydropyrrolo[3,4-c]pyrrole-5-carboxylate]
9	5			CC(C)(C)C(=O)Nc1cc(C(F)(F)F)cnc1COC(=O)N1CC2=C(C1)CN(C(=O)c1ccc(S(N)(=O)=O)c(F)c1)C2 [Example 1.03, [3-(2,2-dimethylpropanoylamino)-5-(trifluoromethyl)pyridin-2-yl]methyl 2-(3-fluoro-4-sulfamoylbenzoyl)-1,3,4,6-tetrahydropyrrolo[3,4-c]pyrrole-5-carboxylate]
4	11			Cc1ccc(NC(=O)C(C)(C)C)c(COC(=O)N2CC3=C(C2)CN(C(=O)c2ccc(S(N)(=O)=O)cc2F)C3)n1 [Example 1.17, [3-(2,2-dimethylpropanoylamino)-6-methylpyridin-2-yl]methyl 2-(2-fluoro-4-sulfamoylbenzoyl)-1,3,4,6-tetrahydropyrrolo[3,4-c]pyrrole-5-carboxylate]
1	10			CC(C)(C)C(=O)Nc1ccc(Cl)nc1COC(=O)N1CC2=C(C1)CN(C(=O)c1c(F)cc(S(N)(=O)=O)cc1F)C2 [Example 1.23, [6-chloro-3-(2,2-dimethylpropanoylamino)pyridin-2-yl]methyl 2-(2,6-difluoro-4-sulfamoylbenzoyl)-1,3,4,6-tetrahydropyrrolo[3,4-c]pyrrole-5-carboxylate]
3	12			CC(C)(C)C(=O)Nc1ccc(Cl)nc1COC(=O)N1CC2=C(C1)CN(C(=O)c1ccc(S(N)(=O)=O)c(F)c1)C2 [Example 1.21, [6-chloro-3-(2,2-dimethylpropanoylamino)pyridin-2-yl]methyl 2-(3-fluoro-4-sulfamoylbenzoyl)-1,3,4,6-tetrahydropyrrolo[3,4-c]pyrrole-5-carboxylate]
7	10			CC(C)(C)C(=O)Nc1cc(C(F)(F)F)cnc1COC(=O)N1CC2=C(C1)CN(C(=O)c1cc(F)c(S(N)(=O)=O)cc1F)C2 [Example 1.01, [3-(2,2-dimethylpropanoylamino)-5-(trifluoromethyl)pyridin-2-yl]methyl 2-(2,5-difluoro-4-sulfamoylbenzoyl)-1,3,4,6-tetrahydropyrrolo[3,4-c]pyrrole-5-carboxylate]
